Laboratory results taken from patent US20140186329A1, “POLYPHENOL ANALOGS TO TREAT ISCHEMIA” (priority 2011, published 2014).
pEC50: −log10 of the molar value. Blank lines part the entries; values can stand above or below the compound they belong to.

What was measured:
[1] = tested on: embolic strokes in rabbits; test: Rabbit small clot embolic stroke model (RSCEM); assay type: in vivo; settings: for therapeutic window in the RSCEM: time post-embolization
From the text: The ability of polyphenol analogs to treat, prevent and/or mitigate one or more symptoms of stroke can also be evaluated in in vivo assays. Such assays are known in the art and find use. One applicable in vivo screening assay is the rabbit clot embolic stroke model, discussed, e.g., in Lapchak, et al., Stroke (2002) 33(9):2279-84 and Lapchak, Exp Neurol. (2007) 205(2):407-13. The rabbit small clot embolic stroke model (RSCEM) and rabbit large clot embolic stroke model (RLCEM) can be used to determine the potential neuroprotective properties and safety profile of test polyphenol analogs after an embolic stroke. Rabbits are embolized by injecting small blood clots (RSCEM) or large blood clots (RLCEM) into the cerebral circulation. Behavioral analysis is conducted 24 hours later, allowing for determination of the effective stroke dose (ES50) or clot amount (milligrams) that produces severe neurological deficits in 50% of rabbits. A drug is considered neuroprotective if it increases the ES50 compared with the vehicle-treated control group.
Behavioral analysis was conducted at 24 hours following treatment, which allowed for the construction of quantal dose-response analysis curves. […] For the superimposed graphs, normal animals are plotted on the y-axis at 0% and abnormal animals are plotted at 100%. […] Moreover, CGA increased the P50 value (the clot dose that produces abnormality in 50% of a treatment group) compared to vehicle control. For a detailed discussion of the methods used to fit the quantal data to a sigmoidal curve, see Zivin and Waud. The pharmacology of chlorogenic acid in the rabbit small clot embolic stroke model (RSCEM) has been published (Lapchak, Exp Neurol. 2007 205(2):407-13). In the manuscript, it is shown that CGA has a therapeutic window of 60 minutes in the RSCEM. FIG. 2 presents the therapeutic window data.

[2] = tested on: PC12 cells; test: Glucose starvation; assay type: cell-based; settings: MTT 24 hr
Method: (§1) FIG. 5 illustrates pharmacological effects of Baicalein on cultured cells. (A) Trophic factor withdrawal. Primary cortical neurons are prepared from 18-day-old rat embryos, and cultured at low cell density 1×10^6/35 mm dish, in serum containing medium with Baicalein (10-10,000 nM), and viability assayed 2 days later using a live-dead assay. (B) Excitotoxicity assay was done with E14 mouse primary cortical neuron cultures. After 11 days of culture, cells were exposed to 10 μM glutamate for 10 min, followed by the addition of varying concentrations of Baicalein (0.2-5 μM). Cell viability was determined 24 hr later with a standard MTT assay. (C) PC12 cells were glucose-deprived then were incubates in the absence or presence of Baicalein. Cell viability was determined 24 hr later using the MTT assay. (D) RCG-5 nerve cells were treated with 30 μM iodoacetic acid for 2 hr in the presence or absence of 5-25 μM Baicalein. In some experiments, Baicalein was added 2 hr after the ischemic event. Cell survival (%) was measured after 24 hr by the MTT assay. Baicalein added before (□) or 2 hr after ([…]) ischemia. […] When these cells are starved for glucose, there is approximately 70% maximal survival in the presence of NGF. Baicalein promotes over 80% survival (FIG. 5C).

[3] = tested on: primary mouse cortical neurons; test: Primary cortical cell glutamate excitotoxicity assay; assay type: cell-based; settings: for % protection against glutamate excitotoxicity at 0.1 µM: Mus musculus, Cortical neurone; for % protection against glutamate excitotoxicity at 0.1 µM / Primary Cortical Cell assay-Glutamate (% protection @ 100 nM): 10 μM glutamate, compound 100 nM
Method: FIG. 5 illustrates pharmacological effects of Baicalein on cultured cells. (A) Trophic factor withdrawal. Primary cortical neurons are prepared from 18-day-old rat embryos, and cultured at low cell density 1×10^6/35 mm dish, in serum containing medium with Baicalein (10-10,000 nM), and viability assayed 2 days later using a live-dead assay. (B) Excitotoxicity assay was done with E14 mouse primary cortical neuron cultures. After 11 days of culture, cells were exposed to 10 μM glutamate for 10 min, followed by the addition of varying concentrations of Baicalein (0.2-5 μM). Cell viability was determined 24 hr later with a standard MTT assay. (C) PC12 cells were glucose-deprived then were incubates in the absence or presence of Baicalein. Cell viability was determined 24 hr later using the MTT assay. (D) RCG-5 nerve cells were treated with 30 μM iodoacetic acid for 2 hr in the presence or absence of 5-25 μM Baicalein. In some experiments, Baicalein was added 2 hr after the ischemic event. Cell survival (%) was measured after 24 hr by the MTT assay. Baicalein added before (□) or 2 hr after ([…]) ischemia.
Primary cultures of cortical neurons that die due to excitotoxicity were prepared as described previously. Briefly, BALB/c mouse embryo cortices were minced and treated with 0.1% trypsin for 20 min. After centrifugation, the cells are resuspended in 827 Neurobasal medium (Invitrogen) plus 10% fetal calf serum and are dissociated by repeated pipetting through a 1 mL blue Eppendorf pipette tip. Then the cells are plated at 1×10^5 cells per well in 96-well poly-L-lysine and laminin-coated microtiter plates (Becton Dickinson, Bedford, Mass., USA) in 827 Neurobasal plus 10% fetal calf serum and 20% glial growth-conditioned medium. Two days later the medium is aspirated and replaced by serum-free 827 Neurobasal medium plus 10 μg/mL cytosine arabinoside. The cultures are used without media change 11 days after plating and are essentially free of astrocytes. They are exposed to 10 μM glutamate followed by varying concentrations of the compounds. Cell viability is determined 24 h later using the fluorescent live/dead assay. Glial conditioned medium is prepared from confluent rat astrocyte cultures. The cells are washed twice with serum-free medium and incubated for 2 days in serum-free Neurobasal medium to produce the growth conditioned medium.
(1) ≧80% cell survival in mouse HT22 hippocampal cells in the presence of 20 μM iodoacetic acid (IAA) (in vitro ischemia model). See, Maher, et al., Brain Res. 2007, 1173:117-25. (2) ≧35% cell survival in primary mouse cortical neurons in the presence of 10 μM glutamate (in vitro excitotoxicity assay). See, Ishige, et al., Free Radic Biol Med, 2001, 30(4): p. 433-46.

[4] = tested on: RCG-5 nerve cells; test: Chemical ischemia model (IAA) in RCG-5 nerve cells; assay type: cell-based; settings: 30 μM IAA 2 hr, 5-25 μM, also added 2 hrs after insult
Method: as §1

[5] = cell based assays (not specified)
[6] = administered 1 hour following embolization
[7] = administered 3 hours following embolization
[8] = 50 mg/kg intravenously, 5 minutes following embolization, behavior at 24 hours

Compound: O=c1cc(-c2ccccc2)oc2cc(O)c(O)c(O)c12 [Baicalein, 5,6,7-trihydroxyflavone, reference compound]
- P50 value (clot dose that produces abnormality in 50% of a group) ([1]; 100 mg/kg subcutaneously, 60 minutes following embolization): 2.15 ± 0.12 mg
- improvement of behavior [1, 6]: effective at improving behavior
- improvement of behavior [1, 7]: neither improve behavior
- therapeutic window in the RSCEM [1]: ≥ 60 min
- survival of glucose-starved cells [2]: over 80%
- cells rescued in excitotoxicity assay ([3]; E14 mouse cortical neurons, 10 μM glutamate 10 min, 0.2-5 μM, MTT 24 hr): about 35%
- % protection against glutamate excitotoxicity at 0.1 µM [3]: 0%
- prevention of cell death in chemical ischemia model [4]: prevents cell death

- pEC50 [5]: 5.30 to 5.70
Compound: O=c1c(O)c(-c2ccc(O)c(O)c2)oc2cc(O)ccc12 [Fisetin, 3,7,3′,4′-Tetrahydroxyflavone, reference compound]
- P50 value (clot dose that produces abnormality in 50% of a group) [1, 8]: 2.53 ± 0.55 mg
- Primary Cortical Cell assay-Glutamate (% protection @ 100 nM) [3]: 0%

Compound: COc1cc(-c2oc3cc(C)c(C)cc3c(=O)c2O)ccc1O [CMS-069, 3-hydroxy-2-(4-hydroxy-3-methoxyphenyl)-6,7-dimethyl-4H-chromen-4-one]
- Primary Cortical Cell assay-Glutamate (% protection @ 100 nM) [3]: 86%

Compound: O=C(/C=C/c1ccc(O)c(O)c1)O[C@@H]1C[C@](O)(C(=O)O)C[C@@H](O)[C@H]1O [Chlorogenic Acid, 1,3,4,5-tetrahydroxy-cyclohexanecarboxylic acid 3-(3,4-dihydroxycinnamate)]
- P50 value (clot dose that produces abnormality in 50% of a group) [1, 8]: 3.61 ± 0.52 mg
- improvement of behavior [1, 6]: effective at improving behavior
- improvement of behavior [1, 7]: neither improve behavior
- therapeutic window in the RSCEM [1]: 60 min
- % protection against glutamate excitotoxicity at 0.1 µM [3]: 0%

Compound: CCOc1cc(-c2ccc(O)c(O)c2)nc2ccccc12 [CMS-023, 4-ethoxy-2-(3,4-dihydroxyphenyl) quinoline]
- Primary Cortical Cell assay-Glutamate (% protection @ 100 nM) [3]: 100%

Compound: CC(C)Oc1cc(-c2ccc(O)c(O)c2)nc2ccccc12 [CMS-024, 4-isopropoxy-2-(3,4-dihydroxyphenyl) quinoline]
- Primary Cortical Cell assay-Glutamate (% protection @ 100 nM) [3]: 58%

Compound: O=c1c(O)c(-c2ccc(O)c(O)c2)oc2c1ccc1ccccc12 [CMS-040, 2-(3,4-dihydroxyphenyl)-3-hydroxy-4H-benzo[h]chromen-4-one]
- % protection against glutamate excitotoxicity at 0.1 µM [3]: 86%

Compound: COc1cc(-c2oc3cc(C)c(C)cc3c(=O)c2O)ccc1OCc1ccccc1 [CMS-059, 2-(4-(benzyloxy)-3-methoxyphenyl)-3-hydroxy-6,7-dimethyl-4H-chromen-4-one]
- % protection against glutamate excitotoxicity at 0.1 µM [3]: 78%
